Experimental data: ChEMBL document CHEMBL5257076, “Design, synthesis, structure-activity relationship studies, and evaluation of novel GLS1 inhibitors” (Bioorg Med Chem Lett, 2023)
Activity calls are given as the source filed them. The rule behind the calls is not given here.

How the values were obtained:
[1] = molecular target: T1, Glutaminase kidney isoform, mitochondrial (Mus musculus) (UniProt D3Z7P3); assay: Inhibition of GLS1 in mouse kidney extract at 10 mM relative to control; format: tissue-based
T1 sequence (whole entry): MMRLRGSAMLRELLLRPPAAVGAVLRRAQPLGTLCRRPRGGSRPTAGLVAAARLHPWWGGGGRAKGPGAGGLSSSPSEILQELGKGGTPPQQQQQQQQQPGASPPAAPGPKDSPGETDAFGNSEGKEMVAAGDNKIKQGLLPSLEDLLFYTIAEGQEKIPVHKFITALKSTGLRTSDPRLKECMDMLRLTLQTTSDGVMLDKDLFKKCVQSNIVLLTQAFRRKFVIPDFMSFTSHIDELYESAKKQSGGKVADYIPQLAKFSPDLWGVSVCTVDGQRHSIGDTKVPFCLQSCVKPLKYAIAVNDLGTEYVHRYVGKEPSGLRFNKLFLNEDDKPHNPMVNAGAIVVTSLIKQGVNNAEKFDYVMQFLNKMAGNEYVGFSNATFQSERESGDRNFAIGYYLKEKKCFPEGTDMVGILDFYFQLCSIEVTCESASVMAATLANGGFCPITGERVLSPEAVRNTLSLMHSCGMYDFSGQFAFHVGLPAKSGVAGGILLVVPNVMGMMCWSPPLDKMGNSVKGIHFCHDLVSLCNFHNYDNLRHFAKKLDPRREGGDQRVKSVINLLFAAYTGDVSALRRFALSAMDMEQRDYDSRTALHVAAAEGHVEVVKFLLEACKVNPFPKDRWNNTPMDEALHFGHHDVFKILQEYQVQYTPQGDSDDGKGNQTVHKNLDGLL

[2] = molecular target: T1, Glutaminase kidney isoform, mitochondrial (Mus musculus); assay: Inhibition of GLS1 in mouse kidney extract at 10 mM; format: tissue-based
[3] = molecular target: T1, Glutaminase kidney isoform, mitochondrial (Mus musculus); assay: Inhibition of mouse recombinant GLS1 relative to control; conditions: concentration not given here
[4] = molecular target: T2, Glutaminase kidney isoform, mitochondrial (Homo sapiens) (UniProt O94925); assay: Inhibition of human recombinant GLS1 at 10 mM relative to control
T2 sequence (whole entry): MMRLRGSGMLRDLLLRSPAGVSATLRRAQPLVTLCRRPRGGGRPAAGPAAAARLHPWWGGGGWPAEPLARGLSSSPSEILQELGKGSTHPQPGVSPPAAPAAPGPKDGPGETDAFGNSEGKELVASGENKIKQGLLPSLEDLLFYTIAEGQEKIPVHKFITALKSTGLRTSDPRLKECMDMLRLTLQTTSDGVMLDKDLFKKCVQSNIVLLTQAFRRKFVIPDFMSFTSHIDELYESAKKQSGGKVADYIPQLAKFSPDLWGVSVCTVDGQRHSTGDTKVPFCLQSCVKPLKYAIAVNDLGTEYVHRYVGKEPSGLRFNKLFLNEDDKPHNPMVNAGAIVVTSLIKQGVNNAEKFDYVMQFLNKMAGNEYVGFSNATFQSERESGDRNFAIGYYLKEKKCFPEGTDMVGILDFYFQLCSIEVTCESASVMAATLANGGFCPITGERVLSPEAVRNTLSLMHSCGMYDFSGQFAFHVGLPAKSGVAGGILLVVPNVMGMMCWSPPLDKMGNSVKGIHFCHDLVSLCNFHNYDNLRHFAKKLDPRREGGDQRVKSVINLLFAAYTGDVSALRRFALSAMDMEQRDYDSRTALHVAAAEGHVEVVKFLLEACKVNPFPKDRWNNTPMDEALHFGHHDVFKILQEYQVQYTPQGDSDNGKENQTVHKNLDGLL

[5] = molecular target: T1, Glutaminase kidney isoform, mitochondrial (Mus musculus); assay: Inhibition of GLS1 in mouse kidney extract at 1 mM relative to control; format: tissue-based
[6] = molecular target: T1, Glutaminase kidney isoform, mitochondrial (Mus musculus); assay: Inhibition of mouse recombinant GLS1 glutaminase activity at 1 mM
[7] = molecular target: T2, Glutaminase kidney isoform, mitochondrial (Homo sapiens); assay: Inhibition of human recombinant GLS1 at 1 mM relative to control

inhibition [2]	SMILES	other results
–	NNC(=O)c1cc(-c2ccccc2)n[nH]1	inhibition [1]: 52.6%
inactive	O=C(N[C@H]1CC[C@H](O)CC1)c1ccc(-c2ccccc2)[nH]1	–
inactive	O=C(NCCO)c1cc(Cc2ccccc2)n[nH]1	–
–	O=C(N[C@H]1CC[C@H](O)CC1)c1cc(Cc2ccc(F)cc2)n[nH]1	inhibition [1]: 90.1%; inhibition [3]: 73.2%; inhibition [4]: 94.6%
–	O=C(N[C@H]1CC[C@H](O)CC1)c1cc(CCc2ccccc2)n[nH]1	inhibition [1]: 58.6%
inactive	CON(C)C(=O)c1cc(Cc2ccccc2)n[nH]1	–
inactive	CNC(=O)c1cc(Cc2ccccc2)n[nH]1	–
–	[N-]=[N+]=CC(=O)CC[C@H](N)C(=O)O	inhibition [5]: 65.5%; inhibition [6]: Active; inhibition [3]: 55.5%; inhibition [7]: 84.1%
inactive	O=C(c1cc(Cc2ccccc2)n[nH]1)N1CCC(O)CC1	–
inactive	O=C(c1cc(Cc2ccccc2)n[nH]1)N1CCCCC1	–
–	O=C(N[C@H]1CC[C@H](O)CC1)c1cc(-c2ccccc2)n[nH]1	inhibition [1]: 93.3%; inhibition [3]: 81.4%; inhibition [4]: 97.1%
inactive	O=C(c1cc(Cc2ccccc2)n[nH]1)N1CCCCCC1	–
–	O=C(N[C@H]1CC[C@H](O)CC1)c1cc(Cc2ccccc2)n[nH]1	inhibition [1]: 99.4%; inhibition [3]: 19.7%
inactive	O=C1CCC(NC(=O)c2cc(Cc3ccccc3)n[nH]2)CC1	–
Active	O=C(N[C@H]1CC[C@H](O)CC1)c1ncc(-c2ccccc2)[nH]1	–
inactive	O=C(c1cc(Cc2ccccc2)n[nH]1)N1CCOCC1	–
inactive	O=C(N[C@H]1CC[C@H](O)CC1)c1cc(-c2ccccc2)c[nH]1	–
inactive	O=C(Nc1ccccc1)c1cc(Cc2ccccc2)n[nH]1	–
inactive	O=C(c1cc(Cc2ccccc2)n[nH]1)N1CCCC1	–
inactive	CN(C)C(=O)c1cc(Cc2ccccc2)n[nH]1	–
